Data: ChEMBL document CHEMBL1795293, “Novel pentamidine derivatives: synthesis, anti-tumor properties and polynucleotide-binding activities” (Eur J Med Chem, 2011)
Activity calls are given as the source filed them. The rule behind the calls is not given here.

Assays:
[1] = test system: HEp-2; assay: Cytotoxicity against human Hep2 cells after 72 hrs by MTT assay; type: functional, cell-based; details: HEp-2, 72 h
[2] = test system: HeLa; assay: Cytotoxicity against human HeLa cells after 72 hrs by MTT assay; type: functional, cell-based
[3] = test system: MCF7; assay: Cytotoxicity against human MCF7 cells after 72 hrs by MTT assay; type: functional, cell-based; details: MCF7, 72 h
[4] = test system: MIA PaCa-2; assay: Cytotoxicity against human MIAPaCa2 cells after 72 hrs by MTT assay; type: functional, cell-based; details: MIA PaCa-2, 72 h
[5] = test system: SW-620; assay: Cytotoxicity against human SW620 cells after 72 hrs by MTT assay; type: functional, cell-based; details: SW-620, 72 h
[6] = test system: Nucleic Acid; assay: Stabilization of double helix calf thymus DNA by spectroscopy; type: nucleic-acid assay; details: Bos taurus
[7] = test system: Nucleic Acid; assay: Binding affinity to Poly A-Poly U RNA measured at 299 nm wavelength at < 0.3 compound to polynucleotide ratio by circular dichroism spectroscopy; type: nucleic-acid assay
[8] = test system: NCI-H460; assay: Cytotoxicity against human H460 cells after 72 hrs by MTT assay; type: functional, cell-based; details: NCI-H460, 72 h
[9] = test system: Nucleic Acid; assay: Binding affinity to Poly A-Poly U RNA measured at 300 to 330 nm wavelength at < 0.3 compound to polynucleotide ratio by circular dichroism spectroscopy; type: nucleic-acid assay
[10] = test system: Nucleic Acid; assay: Binding affinity to calf thymus DNA assessed as change in melting temperature at 0.3 ratio compound/polynucleotide by UV-VIS spectral study; type: nucleic-acid assay; details: Bos taurus
[11] = test system: Nucleic Acid; assay: Binding affinity to Poly dA-Poly dT DNA assessed as change in melting temperature at 0.3 compound to polynucleotide ratio by UV-VIS spectral study; type: nucleic-acid assay
[12] = test system: Nucleic Acid; assay: Binding affinity to calf thymus DNA assessed as ratio of ethidium bromide /compound at which 50% of ethidium bromide fluorescence is quenched by displacement assay; type: nucleic-acid assay, Bos taurus
[13] = test system: Nucleic Acid; assay: Binding affinity to Poly dA-Poly dT DNA assessed as change in melting temperature at 0.5 compound to polynucleotide ratio by UV-VIS spectral study; type: nucleic-acid assay
[14] = test system: Nucleic Acid; assay: Binding affinity to Poly A-Poly U RNA assessed as change in melting temperature at 0.5 compound to polynucleotide ratio by UV-VIS spectral study; type: nucleic-acid assay
[15] = molecular target: Nucleic Acid; assay: Binding affinity to Poly dA-Poly dT DNA assessed as ratio of ethidium bromide /compound at which 50% of ethidium bromide fluorescence is quenched by displacement assay; type: nucleic-acid assay
[16] = molecular target: Nucleic Acid; assay: Binding affinity to Poly A-Poly U RNA assessed as ratio of ethidium bromide /compound at which 50% of ethidium bromide fluorescence is quenched by displacement assay; type: nucleic-acid assay
[17] = molecular target: Nucleic Acid; assay: Binding affinity to Poly G-Poly C RNA assessed as ratio of ethidium bromide /compound at which 50% of ethidium bromide fluorescence is quenched by displacement assay; type: nucleic-acid assay
[18] = test system: Nucleic Acid; assay: Binding affinity to calf thymus DNA assessed as change in melting temperature at 0.5 compound to polynucleotide ratio by UV-VIS spectral study; type: nucleic-acid assay; details: Bos taurus
[19] = test system: MOLT-4; assay: Cytotoxicity against human MOLT4 cells after 72 hrs by MTT assay; type: functional, cell-based; details: MOLT-4, 72 h
[20] = test system: Nucleic Acid; assay: Binding affinity to Poly A-Poly U RNA assessed as change in melting temperature at 0.3 compound to polynucleotide ratio by UV-VIS spectral study; type: nucleic-acid assay
[21] = test system: HCT-116; assay: Cytotoxicity against human HCT116 cells after 72 hrs by MTT assay; type: functional, cell-based; details: HCT-116, 72 h
[22] = test system: Nucleic Acid; assay: Binding affinity to double strand calf thymus DNA measured at 300 to 330 nm wavelength at 0.3 compound to polynucleotide ratio by circular dichroism spectroscopy; type: nucleic-acid assay; details: Bos taurus
[23] = test system: Nucleic Acid; assay: Binding affinity to Poly G-Poly C RNA at 0.5 compound to polynucleotide ratio by circular dichroism spectroscopy; type: nucleic-acid assay
[24] = test system: Nucleic Acid; assay: Binding affinity to Poly A-Poly U RNA measured at 326 nm wavelength at 0.7 compound to polynucleotide ratio by circular dichroism spectroscopy; type: nucleic-acid assay
[25] = test system: Nucleic Acid; assay: Binding affinity to Poly G-Poly C RNA at < 0.3 compound to polynucleotide ratio by circular dichroism spectroscopy; type: nucleic-acid assay
[26] = test system: Nucleic Acid; assay: Binding affinity to Poly A-Poly U RNA at 0.5 compound to polynucleotide ratio by circular dichroism spectroscopy; type: nucleic-acid assay
[27] = test system: Nucleic Acid; assay: Binding affinity to Poly G-Poly C RNA at 0.7 compound to polynucleotide ratio by circular dichroism spectroscopy; type: nucleic-acid assay
[28] = test system: Nucleic Acid; assay: Binding affinity to Poly G-Poly C RNA at 0.1 compound to polynucleotide ratio by circular dichroism spectroscopy; type: nucleic-acid assay
[29] = test system: Nucleic Acid; assay: Binding affinity to calf thymus DNA by UV-VIS spectral study; type: nucleic-acid assay; details: Bos taurus
[30] = test system: Nucleic Acid; assay: Binding affinity to Poly G-Poly C RNA at 0.2-0.3 compound to polynucleotide ratio by circular dichroism spectroscopy; type: nucleic-acid assay
[31] = test system: Nucleic Acid; assay: Binding affinity to double strand calf thymus DNA measured at 300 to 330 nm wavelength at > 0.5 compound to polynucleotide ratio by circular dichroism spectroscopy; type: nucleic-acid assay; details: Bos taurus
[32] = test system: Nucleic Acid; assay: Binding affinity to double strand Poly dA-Poly dT DNA measured at 300 to 330 nm wavelength at 0.1 compound to polynucleotide ratio by circular dichroism spectroscopy; type: nucleic-acid assay
[33] = test system: Nucleic Acid; assay: Binding affinity to Poly A-Poly U RNA measured at 290 nm wavelength at 0.1 compound to polynucleotide ratio by circular dichroism spectroscopy; type: nucleic-acid assay
[34] = test system: Nucleic Acid; assay: Binding affinity to double strand Poly dA-Poly dT DNA measured at 300 to 330 nm wavelength at 0.3 compound to polynucleotide ratio by circular dichroism spectroscopy; type: nucleic-acid assay
[35] = test system: Nucleic Acid; assay: Binding affinity to double strand Poly dA-Poly dT DNA measured at 300 to 330 nm wavelength at > 0.5 compound to polynucleotide ratio by circular dichroism spectroscopy; type: nucleic-acid assay
[36] = test system: Nucleic Acid; assay: Binding affinity to double strand calf thymus DNA measured at 300 to 330 nm wavelength at 0.1 compound to polynucleotide ratio by circular dichroism spectroscopy; type: nucleic-acid assay; details: Bos taurus
[37] = test system: Nucleic Acid; assay: Binding affinity to Poly A-Poly U RNA measured at 303 nm wavelength at < 0.3 compound to polynucleotide ratio by circular dichroism spectroscopy; type: nucleic-acid assay

SMILES	IC50 [1] [µM]	IC50 [2] [µM]	IC50 [3] [µM]	IC50 [4] [µM]	IC50 [5] [µM]	IC50 [8] [µM]	Activity [9]	ΔTm [10] [°C]	ΔTm [11] [°C]	IC50 [12] [molar ratio]	ΔTm [13] [°C]	ΔTm [14] [°C]	IC50 [15] [molar ratio]	IC50 [16] [molar ratio]	IC50 [17] [molar ratio]	ΔTm [18] [°C]	IC50 [19] [µM]	ΔTm [20] [°C]	IC50 [21] [µM]	further results
N#Cc1ccc(NC(=O)c2ccco2)cc1	> 100	47	32	> 100	> 100															
CC(C)NC(=N)c1ccc(NC(=O)c2ccco2)cc1	> 100	60	> 100	> 100	> 100															Activity [6]: inactive
Cl.Cl.N=C(N)c1ccc(C(=O)Nc2cccc(NC(=O)c3ccc(C(=N)N)cc3)n2)cc1	21	19	12	13	> 100	17	Active	13.5	29.3	0.19	30.9	18.7	1.7	0.5	0.07	15	> 100	1	67	Activity [7]: inactive
CC(C)NC(=N)c1ccc(NC(=O)c2ccc(C(=O)Nc3ccc(C(=N)NC(C)C)cc3)o2)cc1.Cl.Cl	5	50	4	79	4		Active	5.6	29.5	0.36	31.7	20.1	2.23	0.03	0.2	6.6		4.5		Activity [22]: inactive; Activity [23]: Active; Activity [24]: Active; Activity [25]: Active; Activity [26]: Active; Activity [27]: Active; Activity [28]: Active; Ks [29]: 6.3 ×10⁴ /M; Activity [30]: Active; Activity [31]: Active; Activity [32]: Active; Activity [33]: Active; Activity [34]: inactive; Activity [35]: Active; Activity [36]: Active
CC(C)NC(=N)c1ccc(C(=O)Nc2cccc(NC(=O)c3ccc(C(=N)NC(C)C)cc3)n2)cc1.Cl.Cl	38	56	24	> 100	> 100	> 100	Active	13.1	30.5	0.13	32.2	5.7	2	0.07	0.07	14.5	> 100	3.7	> 100	Activity [7]: Active
N=C(N)c1ccc(NC(=O)c2ccco2)cc1	> 100	> 100	33	> 100	> 100															Activity [6]: inactive
CC(C)NC(=N)c1ccc(NC(=O)c2cccc(C(=O)Nc3ccc(C(=N)NC(C)C)cc3)n2)cc1.Cl.Cl	30	53	32	> 100	> 100	> 100	Active	8.5	24.1	0.15	25.5	3.7	1.37	0.17	0.1	10.3	> 100	3.1	> 100	
N#Cc1ccc(NC(=O)c2ccc(C(=O)Nc3ccc(C#N)cc3)o2)cc1	> 100	> 100	> 100	> 100	> 100															
Cl.Cl.N=C(N)c1ccc(NC(=O)c2ccc(C(=O)Nc3ccc(C(=N)N)cc3)o2)cc1	11	> 100	5	53	> 100			7.5	30.2	0.8			2.1	1	0.36			1.6		
Cl.Cl.N=C(N)c1ccc(NC(=O)c2cccc(C(=O)Nc3ccc(C(=N)N)cc3)n2)cc1	47	18	> 100	13	> 100	19	Active	6.7	20.4	0.3			1.6	0.47	0.25		> 100	1	> 100	Activity [37]: Active
